Measured values taken from ChEMBL document CHEMBL1130566, “A nonpeptidic agonist ligand of the human C5a receptor: Synthesis, binding affinity optimization and functional characterization” (Bioorg Med Chem Lett, 1997).

Legend:
[1] = target: T1, C5a anaphylatoxin chemotactic receptor 1 (Homo sapiens) (UniProt P21730); test: Tested for the ability to compete with [125I]-CO13 [125I]-Y-F-K-A-Cha-G-L-dF-R) for binding to C5a anaphylatoxin chemotactic receptor of human neutrophil membrane preparations at 30 uM concentration
T1 sequence (whole entry): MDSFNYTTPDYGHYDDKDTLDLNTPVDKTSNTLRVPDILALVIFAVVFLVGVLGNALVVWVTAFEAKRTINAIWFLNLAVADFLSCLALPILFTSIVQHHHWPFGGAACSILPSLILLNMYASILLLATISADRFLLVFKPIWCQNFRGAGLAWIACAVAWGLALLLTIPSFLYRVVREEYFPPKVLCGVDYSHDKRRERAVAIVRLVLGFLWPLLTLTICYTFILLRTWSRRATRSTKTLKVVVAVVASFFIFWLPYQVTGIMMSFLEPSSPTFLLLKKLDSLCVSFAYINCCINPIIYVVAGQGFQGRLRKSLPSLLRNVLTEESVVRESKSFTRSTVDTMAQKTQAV

[2] = target: T2, C5a anaphylatoxin chemotactic receptor 1 (Homo sapiens, UniProt P21730); test: Tested for the ability to compete with [125I]-CO13 ([125I]-Y-F-K-A-Cha-G-L-dF-R) for binding to C5a anaphylatoxin chemotactic receptor from human neutrophil membrane preparations
T2 sequence (P21730 whole entry): T1 sequence (whole entry)

[3] = target: T1, C5a anaphylatoxin chemotactic receptor 1 (Homo sapiens); test: Inhibition of [125I]C5a binding to C5a anaphylatoxin chemotactic receptor of human neutrophil membrane preparations at 30 uM.
[4] = target: T2, C5a anaphylatoxin chemotactic receptor 1; test: Tested for the its ability to compete with [125I]-CO13 [125I]-Y-F-K-A-Cha-G-L-dF-R) for binding to C5a anaphylatoxin chemotactic receptor of human neutrophil membrane preparations
[5] = target: T2, C5a anaphylatoxin chemotactic receptor 1; test: Tested for its ability to compete with [125I]C5a for binding to C5a anaphylatoxin chemotactic receptor of human neutrophil membrane preparations
[6] = target: T1, C5a anaphylatoxin chemotactic receptor 1 (Homo sapiens); test: Tested for the ability to compete with [125I]-CO13 [125I]-Y-F-K-A-Cha-G-L-dF-R) for binding to C5a anaphylatoxin chemotactic receptor of human neutrophil membrane preparations; details: concentration not given here
[7] = target: T1, C5a anaphylatoxin chemotactic receptor 1 (Homo sapiens); test: Tested for […] to evaluate its ability to block C5a induced myeloperoxide (MPO release from neutrophils (for antagonists) or induce MPO release (for agonists)
[8] = target: T1, C5a anaphylatoxin chemotactic receptor 1 (Homo sapiens); test: Tested for the ability to compete with [125I]C5a for binding to human C5a anaphylatoxin chemotactic receptor of human neutrophil membrane preparations at 30 uM concentration

`CC(C)c1ccccc1N1CCN(C(=O)[C@@H](CC2CCCCC2)N2C(=O)N[C@H](CCCN=C(N)N)C2=O)CC1` showed an inhibition [1] of 14%.
`N=C(N)NCCC[C@H]1NC(=O)N([C@H](CC2CCCCC2)C(=O)N2CCN(c3ccccc3)CC2)C1=O` gave an IC50 [2] of 1000 nM and an inhibition [3] of 66%.
`N=C(N)NCCC[C@H]1NC(=O)N([C@H](Cc2ccc(-c3ccccc3)cc2)C(=O)N2CCC3(CCc4ccccc43)CC2)C1=O` was tested, and the IC50 [4] was 900 nM and the IC50 [5] was 2300 nM.
For `N=C(N)NCCC[C@H]1NC(=O)N([C@H](Cc2ccc3ccccc3c2)C(=O)N2CCC3(CCc4ccccc43)CC2)C1=O`, the IC50 [2] was 2000 nM and the inhibition [3] was 67%.
With `N=C(N)NCCC[C@H]1NC(=O)N([C@H](Cc2c[nH]c3ccccc23)C(=O)N2CCC3(CCc4ccccc43)CC2)C1=O` the IC50 [2] was 450 nM and the IC50 [5] was 5000 nM.
Compound `CCCC[C@H](C(=O)N1CCC2(CCc3ccccc32)CC1)N1C(=O)N[C@H](CCCN=C(N)N)C1=O` has an inhibition [6] of 54% and an inhibition [3] of 20%.
Compound `CCC[C@H](C(=O)N1CCC2(CCc3ccccc32)CC1)N1C(=O)N[C@H](CCCN=C(N)N)C1=O` has an IC50 [2] of 3000 nM and an inhibition [3] of 63%.
With `N=C(N)NCCC[C@H]1NC(=O)N([C@H](CC2CCCCC2)C(=O)N2CCC3(CC2)CC(=O)c2ccccc23)C1=O` the IC50 [2] was 1500 nM and the inhibition [3] was 58%.
Compound `Cc1cccc(C)c1N1CCN(C(=O)[C@@H](CC2CCCCC2)N2C(=O)N[C@H](CCCN=C(N)N)C2=O)CC1` has an IC50 [2] of 40 nM, an IC50 [5] of 220 nM and a Release [7] of 78%.
`N=C(N)NCCC[C@H]1NC(=O)N([C@H](CC(=O)N2CCCCC2)C(=O)N2CCC3(CCc4ccccc43)CC2)C1=O` gave an inhibition [1] of 52% and an inhibition [3] of 26%.
Compound `N=C(N)NCCC[C@H]1NC(=O)N([C@@H](C(=O)N2CCC3(CCc4ccccc43)CC2)C(c2ccccc2)c2ccccc2)C1=O` has an inhibition [8] of 75%.
In the case of `N=C(N)NCCCC[C@H]1NC(=O)N([C@H](CC2CCCCC2)C(=O)N2CCC3(CCc4ccccc43)CC2)C1=O`, the IC50 [2] is reported as 300 nM.
Compound `N=C(N)NCCC[C@H]1NC(=O)N([C@H](Cc2ccccc2)C(=O)N2CCC3(CCc4ccccc43)CC2)C1=O` has an IC50 [2] of 800 nM and an IC50 [5] of 8000 nM.
`N=C(N)NCCC[C@H]1NC(=O)N(C(CCc2ccccc2)C(=O)N2CCC3(CCc4ccccc43)CC2)C1=O` (stereo partly specified) gave an IC50 [2] of 3000 nM and an inhibition [3] of 46%.
`N=C(N)NCCC[C@H]1NC(=O)N(C(Cc2ccccc2)C(=O)N2CCC3(CCc4ccccc43)CC2)C1=O` (stereo partly specified) was tested, and the inhibition [1] was 78% and the inhibition [3] was 60%.
`N=C(N)NCCC[C@H]1NC(=O)N([C@H](CC2CCCCC2)C(=O)N2CCC3(CCc4ccccc43)CC2)C1=O` gave an IC50 [2] of 25 nM, an IC50 [5] of 300 nM and a Release [7] of 86%.
Work on `Nc1ccc(C[C@H]2NC(=O)N([C@H](CC3CCCCC3)C(=O)N3CCC4(CCc5ccccc54)CC3)C2=O)cc1` yielded an inhibition [1] of 75%.
`N=C(N)NCCC[C@H]1NC(=O)N([C@H](CC2CCCCC2)C(=O)N2CCC3(C=Cc4ccccc43)CC2)C1=O` showed an IC50 [2] of 300 nM and an IC50 [5] of 1500 nM.
`N=C(N)NCCC[C@H]1NC(=O)N([C@H](Cc2cccc3ccccc23)C(=O)N2CCC3(CCc4ccccc43)CC2)C1=O` showed an IC50 [2] of 11000 nM and an inhibition [3] of 77%.
`N=C(N)NCCC[C@@H]1NC(=O)N([C@H](Cc2ccccc2)C(=O)N2CCC3(CCc4ccccc43)CC2)C1=O` showed an IC50 [2] of 4000 nM and an inhibition [3] of 39%.
`Cc1ccc(N2CCN(C(=O)[C@@H](CC3CCCCC3)N3C(=O)N[C@H](CCCN=C(N)N)C3=O)CC2)c(C)c1` gave an IC50 [2] of 60 nM, an IC50 [5] of 300 nM and a Release [7] of 90%.
Compound `NCCCC[C@H]1NC(=O)N([C@H](CC2CCCCC2)C(=O)N2CCC3(CCc4ccccc43)CC2)C1=O` has an IC50 [2] of 4000 nM.
`NC(=O)NCCC[C@H]1NC(=O)N([C@H](CC2CCCCC2)C(=O)N2CCC3(CCc4ccccc43)CC2)C1=O` was tested, and the inhibition [1] was 58%.
`CC(C)C[C@H](C(=O)N1CCC2(CCc3ccccc32)CC1)N1C(=O)N[C@H](CCCN=C(N)N)C1=O` showed an IC50 [2] of 450 nM, an IC50 [5] of 2000 nM and a Release [7] of 10%.
`CC[C@@H](C)[C@H](C(=O)N1CCC2(CCc3ccccc32)CC1)N1C(=O)N[C@H](CCCN=C(N)N)C1=O` was tested, and the IC50 [2] was 200 nM, the IC50 [5] was 1200 nM and the Release [7] was 31%.
Compound `CC(C)[C@H](C(=O)N1CCC2(CCc3ccccc32)CC1)N1C(=O)N[C@H](CCCN=C(N)N)C1=O` has an IC50 [2] of 1200 nM and an inhibition [3] of 70%.
With `N=C(N)NCCC[C@H]1NC(=O)N([C@@H](Cc2ccccc2)C(=O)N2CCC3(CCc4ccccc43)CC2)C1=O` the inhibition [1] was 15% and the inhibition [3] was 3%.
For `N=C(N)NCCC[C@H]1NC(=O)N([C@H](Cc2ccc(O)cc2)C(=O)N2CCC3(CCc4ccccc43)CC2)C1=O`, the IC50 [2] was 4000 nM.
`CC(=O)OCC1(c2ccccc2)CCN(C(=O)[C@@H](CC2CCCCC2)N2C(=O)N[C@H](CCCN=C(N)N)C2=O)CC1` gave an inhibition [1] of 48% and an inhibition [3] of 35%.
With `N=C(N)NCCC[C@H]1NC(=O)N([C@H](CC(=O)O)C(=O)N2CCC3(CCc4ccccc43)CC2)C1=O` the inhibition [3] was 0%.
`N=C(N)NCCC[C@H]1NC(=O)N([C@H](CC2CCC(C3CCCCC3)CC2)C(=O)N2CCC3(CCc4ccccc43)CC2)C1=O` (stereo partly specified) was tested, and the IC50 [2] was 5000 nM and the inhibition [3] was 26%.
`N=C(N)NCCC[C@H]1NC(=O)N([C@H](CC2CCCCC2)C(=O)N2CCC(c3ccccc3)CC2)C1=O` gave an IC50 [2] of 30 nM, an IC50 [5] of 400 nM and a Release [7] of 88%.
In the case of `CC(O)[C@H](C(=O)N1CCC2(CCc3ccccc32)CC1)N1C(=O)N[C@H](CCCN=C(N)N)C1=O` (stereo partly specified), the inhibition [1] is reported as 57% and the inhibition [3] is reported as 14%.
Compound `Cc1ccccc1N1CCN(C(=O)[C@@H](CC2CCCCC2)N2C(=O)N[C@H](CCCN=C(N)N)C2=O)CC1` has an IC50 [2] of 40 nM, an IC50 [5] of 350 nM and a Release [7] of 76%.
Compound `N=C(N)NCCC[C@H]1NC(=O)N([C@H](Cc2ccc(F)cc2)C(=O)N2CCC3(CCc4ccccc43)CC2)C1=O` has an IC50 [2] of 230 nM and an inhibition [3] of 75%.
In the case of `CSCC[C@H](C(=O)N1CCC2(CCc3ccccc32)CC1)N1C(=O)N[C@H](CCCN=C(N)N)C1=O`, the IC50 [2] is reported as 3400 nM and the inhibition [3] is reported as 57%.
